Counter-ions that a name gives are not always drawn.

The IC50 is the concentration at which inhibition is half-maximal. A low value points to greater potency in that assay. For orientation: Kd means the concentration at which binding is half-saturated. Lower therefore signals tighter binding.

Assay [1] concerns the target T1, full-length proMMP9(1-707) activation by catalytic MMP3 (Homo sapiens, UniProt P14780, R574P).
T1 construct: made in house; host or cells: proMMP9: HEK293 (secreted); MMP3: E. coli
In words: proMMP9/MMP3 P126 Activation Assay. The format is biochemical. As to the method: proMMP9/MMP3 P126 Activation Assay
The reaction volume was 50 μL. […] Reactivity of residual MMP3 towards P-126 substrate was minimal under these conditions.

In assay [2] the target is T2, proMMP9(20-445;ΔFnII) (SEQ ID NO:6) (Homo sapiens, UniProt P14780, DEL216-390).
T2 construct: start methionine (N); made in house; host or cells: E. coli BL21(DE3) RIL
T2 sequence (P14780 with tags, fused parts or gaps DEL216-390): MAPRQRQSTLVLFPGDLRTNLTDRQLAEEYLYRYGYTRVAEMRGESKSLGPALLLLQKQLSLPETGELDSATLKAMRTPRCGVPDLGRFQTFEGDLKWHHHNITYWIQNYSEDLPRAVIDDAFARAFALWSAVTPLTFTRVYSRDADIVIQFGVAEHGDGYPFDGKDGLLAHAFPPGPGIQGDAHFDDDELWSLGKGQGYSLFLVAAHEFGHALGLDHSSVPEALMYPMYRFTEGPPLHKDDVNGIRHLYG
In words: ThermoFluor binding assay with proMMP9(20-445;ΔFnII). The method in brief:
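Protein thermal stability was measured with 2.8 μM proMMP9(20-445;ΔFnII) and 50 μM 1,8-ANS in 50 mM HEPES pH 7.0, 100 mM NaCl, 0.001% Tween-20, 2.5 mM MgCl2, 300 μM CaCl2, across serial compound dilutions. Samples were heated 40–90° C at 1° C/min with fluorescence read at 500 nm. Tm was fitted, and binding was derived from thermodynamic parameters obtained by DSC and ThermoFluor.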
In general terms: In DSF a fluorescence change marks the thermal transition of the protein.

In assay [3] the target is T3, proMMP9(67-444;ΔFnII) (SEQ ID NO:5) (Homo sapiens, UniProt P14780, DEL216-390).
T3 construct: start methionine (N); made in house; host or cells: E. coli BL21(DE3) RIL
T3 sequence (P14780 with tags, fused parts or gaps DEL216-390): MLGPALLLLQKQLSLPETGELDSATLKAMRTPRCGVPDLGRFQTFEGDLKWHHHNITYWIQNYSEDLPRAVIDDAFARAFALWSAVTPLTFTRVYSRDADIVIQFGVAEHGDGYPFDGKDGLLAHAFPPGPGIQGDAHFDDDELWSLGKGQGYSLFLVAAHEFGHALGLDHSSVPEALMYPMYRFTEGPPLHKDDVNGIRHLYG
In words: ThermoFluor binding assay with proMMP9(67-444;ΔFnII). The method in brief: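 Thermal shift of 3.5 μM proMMP9(67-444;ΔFnII), desalted beforehand, with 50 μM 1,8-ANS in 50 mM HEPES pH 7.0, 100 mM NaCl, 2.5 mM MgCl2, 300 μM CaCl2, 0.001% Tween-20. Heated 40–90 °C at 1 °C/min, fluorescence read at 500 nm; binding fitted from Tm shifts using DSC- and ThermoFluor-derived unfolding parameters.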

T1 sequence (P14780 20-707 R574P): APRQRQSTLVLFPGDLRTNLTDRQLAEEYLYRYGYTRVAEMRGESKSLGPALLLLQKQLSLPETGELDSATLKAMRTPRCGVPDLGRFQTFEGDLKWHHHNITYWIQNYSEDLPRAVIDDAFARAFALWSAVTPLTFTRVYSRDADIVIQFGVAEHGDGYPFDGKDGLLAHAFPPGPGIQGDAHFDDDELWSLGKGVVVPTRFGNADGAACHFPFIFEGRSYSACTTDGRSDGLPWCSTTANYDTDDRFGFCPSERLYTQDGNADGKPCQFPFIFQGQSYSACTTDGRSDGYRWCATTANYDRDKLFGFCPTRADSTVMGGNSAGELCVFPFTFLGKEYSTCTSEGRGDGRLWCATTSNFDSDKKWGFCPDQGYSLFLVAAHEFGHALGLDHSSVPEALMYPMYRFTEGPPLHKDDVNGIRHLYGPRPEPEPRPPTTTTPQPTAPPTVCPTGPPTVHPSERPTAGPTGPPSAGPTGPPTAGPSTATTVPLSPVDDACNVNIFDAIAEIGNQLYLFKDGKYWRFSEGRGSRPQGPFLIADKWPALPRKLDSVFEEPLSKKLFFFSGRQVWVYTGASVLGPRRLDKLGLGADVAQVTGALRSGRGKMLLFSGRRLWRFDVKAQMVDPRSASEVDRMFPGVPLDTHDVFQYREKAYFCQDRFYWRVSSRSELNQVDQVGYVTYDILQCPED

In assay [1], `CC(C)Oc1ccc(S(N)(=O)=O)cc1Nc1nc2c(ccc3cnccc32)s1` [Example 105, 4-Isopropoxy-3-(thiazolo[4,5-f]isoquinolin-2-ylamino)-benzenesulfonamide.TFA] had an IC50 of 850 nM. Moreover, the Kd is 65000 nM in assay [2] and 800 nM in assay [3].
For `CCn1ncc2c3nc(Nc4cc(S(C)(=O)=O)ccc4OC)sc3ccc21` [Example 106, (6-Ethyl-6H-3-thia-1,6,7-triaza-as-indacen-2-yl)-(5-methanesulfonyl-2-methoxy-phenyl)-amine.TFA], in that order: 190 nM, 600 nM and 530 nM.
As for `CCn1cc2c(ccc3sc(Nc4cc(S(C)(=O)=O)ccc4OC)nc32)n1` [Example 107, (7-Ethyl-7H-3-thia-1,6,7-triaza-as-indacen-2-yl)-(5-methanesulfonyl-2-methoxy-phenyl)-amine.TFA], in assay [1], 580 nM corresponded to half-maximal inhibition (IC50). The Kd in assay [2] is 6800 nM; in assay [3], 1500 nM.
For `COc1ccc(S(C)(=O)=O)cc1Nc1nc2c(ccc3c2cnn3CC(C)C)s1` [Example 108, (6-Isobutyl-6H-3-thia-1,6,7-triaza-as-indacen-2-yl)-(5-methanesulfonyl-2-methoxy-phenyl)-amine.TFA], in that order: 650 nM, over 95000 nM and 1400 nM.
In the same order, the values of `COc1ccc(S(C)(=O)=O)cc1Nc1nc2c(ccc3c2cnn3CCC(C)C)s1` [Example 109, (5-Methanesulfonyl-2-methoxy-phenyl)-[6-(3-methyl-butyl)-6H-3-thia-1,6,7-triaza-as-indacen-2-yl]-amine.TFA] are about 2000 nM, over 95000 nM and 2300 nM.
For `COc1ccc(S(C)(=O)=O)cc1Nc1nc2c(ccc3[nH]ncc32)s1` [Example 110, (5-Methanesulfonyl-2-methoxy-phenyl)-(6H-3-thia-1,6,7-triaza-as-indacen-2-yl)-amine.TFA], in that order: 260 nM, over 95000 nM and 340 nM.
As for `CCCn1ncc2c3nc(Nc4cc(S(C)(=O)=O)ccc4OC)sc3ccc21` [Example 111, (5-Methanesulfonyl-2-methoxy-phenyl)-(6-propyl-6H-3-thia-1,6,7-triaza-as-indacen-2-yl)-amine.TFA], the IC50 in assay [1] was 370 nM. The Kd in assay [2] stood at 3100 nM; in assay [3], 1700 nM.
In turn, `COc1ccc(C#N)cc1Nc1nc2c(ccc3c2cnn3C)s1` [Example 112, 4-Methoxy-3-(6-methyl-6H-3-thia-1,6,7-triaza-as-indacen-2-ylamino)-benzonitrile.TFA] had an IC50 in assay [1] of 160 nM. Besides, the Kd was over 95000 nM in assay [2] and 7000 nM in assay [3].
As for `Cn1ncc2c3nc(Nc4cc(C(N)=O)ccc4OC(F)(F)F)sc3ccc21` [Example 113, 3-(6-Methyl-6H-3-thia-1,6,7-triaza-as-indacen-2-ylamino)-4-trifluoromethoxy-benzamide.TFA], in assay [1], the IC50 is 250 nM. In addition, the Kd in assay [2] turned out to be 140 nM; in assay [3], 1500 nM.
In assay [1], `NC(=O)c1ccc(OC(F)(F)F)c(Nc2nc3c(ccc4cnccc43)s2)c1` [Example 114, 3-(Thiazolo[4,5-f]isoquinolin-2-ylamino)-4-trifluoromethoxy-benzamide.TFA] gave an IC50 of about 2200 nM. Further, the Kd was found to be 1200 nM in assay [2] and 4600 nM in assay [3].
In the same order, the values of `CCn1c(C)nc2ccc3sc(Nc4cc(S(N)(=O)=O)ccc4OC(C)C)nc3c21` [Example 118, 3-(8-Ethyl-7-methyl-8H-imidazo[4′,5′:3,4]benzo[2,1-d]thiazol-2-ylamino)-4-isopropoxy-benzenesulfonamide.TFA] are 510 nM, 290 nM and 860 nM.
In the same order, the values of `Cc1nc2ccc3sc(Nc4cc(S(N)(=O)=O)ccc4OC(C)C)nc3c2n1C` [Example 119, 3-(7,8-Dimethyl-8H-imidazo[4′,5′:3,4]-benzo[2,1-d]thiazol-2-ylamino)-4-isopropoxy-benzenesulfonamide.TFA] are 500 nM, 910 nM and 1200 nM.
For `CCn1c(C)nc2ccc3sc(Nc4ccccc4OC)nc3c21` [Example 120, (8-Ethyl-7-methyl-8H-imidazo[4′,5′:3,4]benzo[2,1-d]thiazol-2-yl)-(2-methoxy-phenyl)-amine.TFA], in that order: 480 nM, 3400 nM and 2600 nM.
With `CCn1c(C)nc2ccc3sc(Nc4cc(F)ccc4OC)nc3c21` [Example 121, (8-Ethyl-7-methyl-8H-imidazo[4′,5′:3,4]benzo[2,1-d]thiazol-2-yl)-(5-fluoro-2-methoxy-phenyl)-amine.TFA], the IC50 in assay [1] came to 310 nM. The Kd in assay [2] amounted to 4000 nM; in assay [3] it was 860 nM.
For `CCn1c(C)nc2ccc3sc(Nc4cc(S(N)(=O)=O)ccc4OC(F)(F)F)nc3c21` [Example 122, 3-(8-Ethyl-7-methyl-8H-imidazo[4′,5′:3,4]benzo[2,1-d]thiazol-2-ylamino)-4-trifluoromethoxy-benzenesulfonamide.TFA], in that order: 650 nM, 1200 nM and 340 nM.
For `COc1ccc(S(N)(=O)=O)cc1Nc1nc2c(ccc3nc(C)n(C)c32)s1` [Example 123, 3-(7,8-Dimethyl-8H-imidazo[4′,5′:3,4]-benzo[2,1-d]thiazol-2-ylamino)-4-methoxy-benzenesulfonamide.TFA], in that order: 810 nM, 5300 nM and 4700 nM.
For `COc1ccccc1Nc1nc2c(ccc3nc(C)n(C)c32)s1` [Example 124, (7,8-Dimethyl-8H-imidazo[4′,5′:3,4]benzo[2,1-d]thiazol-2-yl)-(2-methoxy-phenyl)-amine.TFA], in that order: 470 nM, 5700 nM and 2800 nM.
`COc1ccc(F)cc1Nc1nc2c(ccc3nc(C)n(C)c32)s1` [Example 125, (7,8-Dimethyl-8H-imidazo[4′,5′:3,4]benzo[2,1-d]thiazol-2-yl)-(5-fluoro-2-methoxy-phenyl)-amine.TFA]: the midpoint of inhibition in assay [1], the IC50, lay at 260 nM. The Kd in assay [2] turned out to be 3100 nM; in assay [3], 600 nM.
For `Cc1nc2ccc3sc(Nc4cc(S(N)(=O)=O)ccc4OC(F)(F)F)nc3c2n1C` [Example 126, 3-(7,8-Dimethyl-8H-imidazo[4′,5′:3,4]-benzo[2,1-d]thiazol-2-ylamino)-4-trifluoromethoxy-benzenesulfonamide.TFA], in that order: 460 nM, over 95000 nM and 2200 nM.
For `COc1ccc(F)cc1Nc1nc2c(ccc3ncn(C)c32)s1` [Example 127, (5-Fluoro-2-methoxy-phenyl)-(8-methyl-8H-imidazo[4′,5′:3,4]benzo[2,1-d]thiazol 2-yl)-amine.TFA], in that order: 270 nM, 4300 nM and 980 nM.
In assay [1], `Cn1cnc2ccc3sc(Nc4cc(S(N)(=O)=O)ccc4OC(F)(F)F)nc3c21` [Example 128, 3-(8-Methyl-8H-imidazo[4′,5′:3,4]benzo[2,1-d]thiazol-2-ylamino)-4-trifluoromethoxy-benzenesulfonamide.TFA] showed an IC50 of 680 nM. The Kd in assay [2] was 4900 nM; in assay [3] it was 1500 nM.
`CCn1c(C)nc2ccc3sc(Nc4cc(S(N)(=O)=O)ccc4OC)nc3c21` [Example 129, 3-(8-Ethyl-7-methyl-8H-imidazo[4′,5′:3,4]benzo[2,1-d]thiazol-2-ylamino)-4-methoxy-benzenesulfonamide.TFA]: in assay [1], the midpoint of inhibition, the IC50, lay at 420 nM. In addition, the Kd in assay [2] came to 1200 nM; in assay [3], 520 nM.
For `COc1ccc(S(N)(=O)=O)cc1Nc1nc2c(ccc3ncn(C)c32)s1` [Example 130, 4-Methoxy-3-(8-methyl-8H-imidazo[4′,5′:3,4]benzo[2,1-d]thiazol-2-ylamino)-benzenesulfonamide.TFA], in that order: 830 nM, over 95000 nM and 1200 nM.
In the same order, the values of `CC(C)Oc1ccc(S(N)(=O)=O)cc1Nc1nc2c(ccc3ncn(C)c32)s1` [Example 131, 4-Isopropoxy-3-(8-methyl-8H-imidazo[4′,5′:3,4]benzo[2,1-d]thiazol-2-ylamino)-benzenesulfonamide.TFA] are 590 nM, over 95000 nM and 2000 nM.

For the origin of these results see US20120129811A1, “TRICYCLIC INHIBITORS OF PRO-MATRIX METALLOPROTEINASE ACTIVATION” (priority 2010, published 2012).
